From patent EP0702551B1, “COMPOSITIONS AND METHODS FOR REPARATION AND PREVENTION OF FIBROTIC LESIONS” (MARGOLIN, Solomon B., priority 1993, dated 1994)
“And” between values parts separate entries of the source, which are not always exact repeats. Equal values may be shown once. Marks after values point to notes of the source that are not given here.

Key:
Pulmonary fibrosis = test: Clinical human open trial, pulmonary fibrosis; type: in vivo
Protocol: (§1) Clinical human open trials have been undertaken as follows: • 1. Pulmonary fibrosis diagnosed as caused by asbestos was treated with pirfenidone and closely and objectively followed in two subjects. […] Pulmonary fibrosis diagnosed as idiopathic in nature was treated with pirfenidone and closely and objectively followed in one subject for over two years. […] Two subjects suffered from frequency, severe nocturia, incontinence, constant urgency, and in the third these symptoms were less severe. Clinically, all had enlarged prostates that explained the symptoms. The results were dramatic in the eldest subject within two weeks of therapy. Nocturia of 6-7 trips (every 60-90 minutes) per night was reduced to 1 or 2 nightly (4-5 hours apart). In the other two patients, nocturia 3-4 times (every 2-3 hours) was reduced to once nightly 4-5 hours after retiring. […] Inhibition of excessive scar formation by direct application of pirfenidone ointment to skin lesions in 10 cases.

[1] = test system: CYCLOPHOSPHAMIDE-INDUCED IN[…]; test: Cyclophosphamide-induced interstitial fibrosis in mice; type: in vivo
From the text: In mice, pulmonary fibrosis induced with cyclophosphamide […] and is know to produce pulmonary fibrosis in patients as a side effect.

[2] = test system: Benign prostate hypertrophy; test: Clinical human open trial, benign prostate hypertrophy; type: in vivo
Protocol: as §1

[3] = test system: Fibrosis of the ventricular myocardium; test: Clinical human open trial, fibrosis of the ventricular myocardium; type: in vivo
Protocol: as §1

Acute toxicity (LD), cat = settings: in vivo
From the text: The acute toxicity of the ingredient in the medical composition of the present invention which exerts the anti-fibrotic activity is as shown in the table below: […]

[4] = test system: PULMONARY INTERSTITIAL HYPERPLASIA (FIBROSIS); test: Pulmonary interstitial hyperplasia (fibrosis) in dogs, oral capsules, microscopic scoring; type: in vivo, Beagle dogs; settings: for Hyperplasia Scores 0 (number of dogs): 0 = normal tissue; for Hyperplasia Scores 1 (number of dogs): 1 = minimal; for Hyperplasia Scores 2 (number of dogs): 2 = moderate; for Hyperplasia Scores 3 (number of dogs): 3 = severe; for Incidence of Normal Lung: control 0/9
Protocol: The mean score for Group I (Control) was 2.11 +/-0.31, and for Group IV, which received pirfenidone, 150 mg/kg per day orally in capsules, was 0.22 +/-0.19.

[5] = test system: fibrosis (interstitial hyperplasia); test: Histopathological examination of rat lungs for fibrosis after three months of drug in the diet; type: in vivo; settings: rats; for Lung Connective Tissue Score, Mean: 300 mg/kg (p.o.) in the diet for three months, score 0, 1, 2, 3 = degree of fibrosis, control mean 1.63, 300 mg/kg
Protocol: The results of a histopathological examination of the lungs of rats for fibrosis (interstitial hyperplasia) after receiving 300mg/kg body weight of pirfenidone in the diet for three months are summarized in Table 2. The individual microscopic readings of the lung are also shown in Table 2, where a score schedule of 0, 1, 2, and 3 reflects the degree of fibrosis.
The data in Table 2 reveal a statistically significant reduction in the amount of fibrosis in rats receiving pirfenidone as compared to placebo control rats (Group 1). The mean score for the controls (Group 1) was 1.63 +/-0.23, and for Group IV (pirfenidone, 300mg/kg body weight daily was 0.95 +/-0.23.
Student's T value was 2.43, with P less than 0.02 (highly significant statistically).

[6] = test system: ASBESTOS-INDUCED PULMONARY IN[…]; test: Asbestos-induced pulmonary interstitial fibrosis in hamsters; type: in vivo
From the text: In hamsters, pulmonary fibrosis induced with crysotile asbestos was removed following oral pirfenidone (Table 4).
The novel role of pirfenidone in the therapeutic repair of fibrotic lung tissue featuring removal of fibrotic lesions, and concomitant regeneration of normal lung tissue has been observed in experimental asbestosis by histopathological examination of lung tissue specimens under the light microscope, and electron microscopy (Table 4).
This was subsequently confirmed by ashing of lung specimens in a laboratory oven, and then determining the asbestos content.

[7] = GROUP II: cyclophosphamide 200 mg/kg i.p. plus 500 mg/kg/day p.o.
[8] = 300 mg/kg (p.o.), three months, 19 animals
[9] = group average, asbestos + 500 mg/kg/day in the diet two months, asbestos only 2.75+/-0.25
[10] = individual hamsters, asbestos + 500 mg/kg/day in the diet two months, 0 = normal tissue, 1 = minimal, 2 = moderate, 3 = severe, 500 mg/kg/day

Cc1ccc(=O)n(-c2ccccc2)c1 [pirfenidone, 5-methyl-1-phenyl-2-(1H) pyridone]
Clinical impressions (Pulmonary fibrosis; pulmonary fibrosis diagnosed as caused by asbestos, two subjects): dramatic and highly favorable
Clinical impressions (Pulmonary fibrosis; pulmonary fibrosis diagnosed as idiopathic, one subject followed for over two years): highly favorable
Lung Dry Wt. [1, 7]: 52.4+/-0.9 Mg.
Lung FIBROSIS Scores (N/N), incidence of scores 3.0 or less [1, 7]: 3/5
Lung FIBROSIS Scores ([1]; GROUP II: cyclophosphamide 200 mg/kg i.p. plus 500 mg/kg/day p.o., scoring 0 through 6): 2.99+/-0.75
pulmonary fibrosis induced with cyclophosphamide ([1]; mice, oral administration): removed
digital examination of the prostate ([2]; all cases, in 3-4 weeks): detectable reduction in the size of the prostate
Nocturia after therapy ([2]; other two patients, before 3-4 times (every 2-3 hours)): once
clinical results ([2]; three elderly subjects (66-100 years)): very good to excellent
fibrosis of the ventricular myocardium (electrocardiogram maps and nuclear resonance determinations) ([3]; one subject (diagnosed as terminal), after repeated coronary infarcts): objective evidence of the reduction of the fibrosis
survival of the subject ([3]; one subject diagnosed as terminal, drug terminated after 18 months): additional three years
LD50 (Acute toxicity (LD), cat; iv): 40 mg/kg
LD50 (Acute toxicity (LD), cat; po): 500 mg/kg
Hyperplasia Scores 0 (number of dogs) ([4]; 25 mg/kg/day oral): 1
Hyperplasia Scores 1 (number of dogs) ([4]; 25 mg/kg/day oral): 1
Hyperplasia Scores 2 (number of dogs) ([4]; 25 mg/kg/day oral): 4
Hyperplasia Scores 3 (number of dogs) ([4]; 25 mg/kg/day oral): 0
Incidence of Normal Lung ([4]; 25 mg/kg/day oral): 1/6
Average Scores ([4]; 25 mg/kg/day oral, hyperplasia score 0-3, control 2.11+/-0.31): 1.50+/-0.34
Hyperplasia Scores 0 (number of dogs) ([4]; 75 mg/kg/day oral): 2
Hyperplasia Scores 1 (number of dogs) ([4]; 75 mg/kg/day oral): 2
Hyperplasia Scores 2 (number of dogs) ([4]; 75 mg/kg/day oral): 3
Hyperplasia Scores 3 (number of dogs) ([4]; 75 mg/kg/day oral): 1
Incidence of Normal Lung ([4]; 75 mg/kg/day oral): 2/8
Average Scores ([4]; 75 mg/kg/day oral, hyperplasia score 0-3, control 2.11+/-0.31): 1.38+/-0.38
Hyperplasia Scores 0 (number of dogs) ([4]; 150 mg/kg/day oral): 7
Hyperplasia Scores 1 (number of dogs) ([4]; 150 mg/kg/day oral): 2
Hyperplasia Scores 2 (number of dogs) ([4]; 150 mg/kg/day oral): 0
Hyperplasia Scores 3 (number of dogs) ([4]; 150 mg/kg/day oral): 0
Incidence of Normal Lung ([4]; 150 mg/kg/day oral): 7/9
Average Scores ([4]; 150 mg/kg/day orally in capsules, hyperplasia score 0-3, control 2.11+/-0.31, P<0.001, 150 mg/kg/day): 0.22 +/-0.19
Average Scores ([4]; 150 mg/kg/day orally in capsules, hyperplasia score 0-3, control 2.11+/-0.31, P<0.001, listed as Pirfenidone, 150 mg/kg/day): 0.22+/-0.15**
Lung Connective Tissue Score, Mean [5]: 0.95 +/-0.23
Lung Connective Tissue Score, Mean ([5]; listed as PIRFENIDONE): 0.95
Lung Connective Tissue Score 0, Total (animals) [5, 8]: 5
Lung Connective Tissue Score 1, Total (animals) [5, 8]: 11
Lung Connective Tissue Score 2, Total (animals) [5, 8]: 2
Lung Connective Tissue Score 3, Total (animals) [5, 8]: 1
recurrence of asbestos-induced fibrosis ([6]; after drug had been discontinued for two months): did not recur
lung cell-imbedded asbestos fibers ([6]; electron microscope, confirmed by ashing of lung specimens and asbestos content): had been removed
Lung Density, Average ([6]; group average, asbestos + 500 mg/kg/day in the diet two months, asbestos only 2.53+/-0.23): 1.17+/-0.10
Pulmonary Fibrosis Score Electron Microscope, Average [6, 9]: 0.25+/-0.25
Pulmonary Fibrosis Score Light Microscope, Average [6, 9]: 1.00+/-0.41
pulmonary fibrosis induced with crysotile asbestos ([6]; hamsters, oral): removed
Pulmonary Fibrosis Score Electron Microscope [6, 10]: 0 (3×) and 1
Pulmonary Fibrosis Score Light Microscope [6, 10]: 0 and 2 and 1 (2×)
Lung Density ([6]; individual hamsters, asbestos by inhalation 5 days, 500 mg/kg/day orally in the diet for two months, beginning two months after exposure, 500 mg/kg/day): 0.98 and 1.04 and 1.26 and 1.41
